Measured values reported in ChEMBL document CHEMBL1201862, “PubChem BioAssay data set” (2004).
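Results reflect a 48-hour exposure of cells in 96-well plates to compound at five concentrations. GI50 marks 50% less growth.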 Activity calls are given as the source filed them. Cut-off read from the data, not from the text of the source: active = GI50 up to about 1.1 µM and inactive = higher.

What was measured:
Experiment in all cases: inhibition of tumour cell growth, NCI panel, 48 h
DLD-1 = system: DLD-1
DMS-114 = system: DMS-114
M19-MEL = system: M19-MEL
RXF 631 = system: RXF 631
SNB-78 = system: SNB-78
XF498 = system: XF498
DMS-273 = system: DMS-273
HOP-18 = system: HOP-18
T47D = system: T47D

Structure (SMILES): CC(=O)c1c(O)ccc2c1CC(CC=O)O2 (stereo unspecified)
- GI50 (DLD-1): 32.7 µM (inactive)
- GI50 (DMS-114): 20.1 µM (inactive)
- GI50 (M19-MEL): 40.1 µM (inactive)
- GI50 (RXF 631): 65 µM (inactive)
- GI50 (SNB-78): 64.6 µM (inactive)
- GI50 (XF498): > 100 µM (inactive)

Structure (SMILES): Cc1ccc(-c2c(N)[n+]([O-])c3ccccc3[n+]2[O-])cc1
- GI50 (DLD-1): 13.1 µM (inactive)
- GI50 (DMS-273): 13.4 µM (inactive)
- GI50 (HOP-18): 15.7 µM (inactive)
- GI50 (M19-MEL): 11.7 µM (inactive)
- GI50 (RXF 631): 1.65 µM (inactive)
- GI50 (SNB-78): 13 µM (inactive)
- GI50 (XF498): 3.71 µM (inactive)

Structure (SMILES): N#C/C(=C\c1ccc(O)c(O)c1)C(N)=S [TYRPHOSTIN 47]
- GI50 (DLD-1): 64.6 µM (inactive)
- GI50 (DMS-114): 18.2 µM (inactive)
- GI50 (DMS-273): > 79.1 µM (inactive)
- GI50 (HOP-18): > 100 µM (inactive)
- GI50 (M19-MEL): > 100 µM (inactive)
- GI50 (SNB-78): > 100 µM (inactive)
- GI50 (XF498): > 100 µM (inactive)

Structure (SMILES): COc1cccc2c1OC1Sc3ccccc3-c3nn(-c4ccccc4)c-2c31 (stereo unspecified)
- GI50 (DLD-1): > 100 µM (inactive)
- GI50 (DMS-114): > 100 µM (inactive)
- GI50 (DMS-273): > 100 µM (inactive)
- GI50 (HOP-18): > 100 µM (inactive)
- GI50 (M19-MEL): > 100 µM (inactive)
- GI50 (RXF 631): > 100 µM (inactive)
- GI50 (SNB-78): > 100 µM (inactive)
- GI50 (XF498): > 100 µM (inactive)

Structure (SMILES): COc1ccc2c(CN3CCCCC3CO)cc3cc(OC)c(OC)cc3c2c1 (stereo unspecified)
- GI50 (DLD-1): 6.18 µM (inactive)
- GI50 (DMS-114): 3.49 µM (inactive)
- GI50 (DMS-273): 2.65 µM (inactive)
- GI50 (HOP-18): 13.7 µM (inactive)
- GI50 (M19-MEL): 3.3 µM (inactive)
- GI50 (SNB-78): 6.93 µM (inactive)
- GI50 (XF498): 5.36 µM (inactive)

Structure (SMILES): C/C(CC(=O)Nc1ccc(NC(=O)C/C(C)=N\NC(N)=O)cc1)=N/NC(N)=O
- GI50 (DLD-1): > 45.2 µM (inactive)
- GI50 (DMS-114): > 35.6 µM (inactive)
- GI50 (DMS-273): > 37.1 µM (inactive)
- GI50 (HOP-18): 63 µM (inactive)
- GI50 (M19-MEL): > 100 µM (inactive)
- GI50 (RXF 631): 33 µM (inactive)
- GI50 (SNB-78): > 100 µM (inactive)
- GI50 (XF498): > 92.3 µM (inactive)

Structure (SMILES): COc1cc2c(cc1OC)/C(=C\c1ccccc1N)C(=O)OC2
- GI50 (DLD-1): 15 µM (inactive)
- GI50 (DMS-114): 16.3 µM (inactive)
- GI50 (DMS-273): 10.7 µM (inactive)
- GI50 (HOP-18): 13.8 µM (inactive)
- GI50 (M19-MEL): 15.2 µM (inactive)
- GI50 (RXF 631): 9.75 µM (inactive)

Structure (SMILES): O=C(NC(=O)c1ccccc1[N+](=O)[O-])Nc1ccc(Oc2ncc(Br)cn2)c(Cl)c1
- GI50 (DLD-1): 0.0148 µM (active)
- GI50 (DMS-114): < 0.0184 µM (active)
- GI50 (DMS-273): 0.0165 µM (active)
- GI50 (HOP-18): 0.064 µM (active)
- GI50 (M19-MEL): 0.0196 µM (active)
- GI50 (RXF 631): 0.0284 µM (active)
- GI50 (T47D): 0.0871 µM (active)
- GI50 (XF498): 0.00723 µM (active)

Structure (SMILES): O=C(NNC(=O)c1cc(/C=C/c2cccc([N+](=O)[O-])c2)nc(S)n1)Nc1ccc(Cl)cc1
- GI50 (DLD-1): 20.2 µM (inactive)
- GI50 (DMS-114): 30.8 µM (inactive)
- GI50 (DMS-273): > 100 µM (inactive)
- GI50 (HOP-18): > 100 µM (inactive)
- GI50 (M19-MEL): 69 µM (inactive)
- GI50 (SNB-78): > 100 µM (inactive)
- GI50 (XF498): 28.6 µM (inactive)

Structure (SMILES): NC(=O)NNC/C(Cl)=C(\Cl)C(=O)O
- GI50 (DLD-1): > 100 µM (inactive)
- GI50 (DMS-114): > 100 µM (inactive)
- GI50 (DMS-273): > 100 µM (inactive)
- GI50 (HOP-18): > 100 µM (inactive)
- GI50 (M19-MEL): > 100 µM (inactive)
- GI50 (SNB-78): > 100 µM (inactive)
- GI50 (XF498): > 100 µM (inactive)

Structure (SMILES): O=[N+]([O-])C1C2C=CC(C2)[C@H]1c1ccccc1Cl (stereo partly specified)
- GI50 (DLD-1): 83.6 µM (inactive)
- GI50 (DMS-273): > 100 µM (inactive)
- GI50 (HOP-18): > 100 µM (inactive)
- GI50 (RXF 631): 76.2 µM (inactive)
- GI50 (SNB-78): > 100 µM (inactive)
- GI50 (XF498): > 77.1 µM (inactive)

Structure (SMILES): C[N+]1(C)C/C(=C\C=C\c2ccccc2)C(=O)/C(=C/C=C/c2ccccc2)C1
- GI50 (DLD-1): 16.1 µM (inactive)
- GI50 (DMS-114): 2.72 µM (inactive)
- GI50 (DMS-273): 1.62 µM (inactive)
- GI50 (HOP-18): > 42.2 µM (inactive)
- GI50 (M19-MEL): 7.06 µM (inactive)
- GI50 (SNB-78): 6.12 µM (inactive)
- GI50 (T47D): 17 µM (inactive)
- GI50 (XF498): 8.49 µM (inactive)

Structure (SMILES): NCCSSCc1ccccc1CSSCCN
- GI50 (DLD-1): 48.4 µM (inactive)
- GI50 (DMS-114): > 100 µM (inactive)
- GI50 (DMS-273): 48.9 µM (inactive)
- GI50 (HOP-18): > 100 µM (inactive)
- GI50 (M19-MEL): 29.2 µM (inactive)
- GI50 (RXF 631): > 100 µM (inactive)
- GI50 (SNB-78): > 100 µM (inactive)
- GI50 (XF498): > 100 µM (inactive)

Structure (SMILES): Cc1cccc(C)c1N1C(=O)C(=O)C(c2nc3ccccc3s2)/C(=N/NC(=O)NN)C1=O (stereo unspecified)
- GI50 (DLD-1): > 100 µM (inactive)
- GI50 (DMS-114): > 100 µM (inactive)
- GI50 (DMS-273): > 100 µM (inactive)
- GI50 (HOP-18): > 100 µM (inactive)
- GI50 (M19-MEL): > 100 µM (inactive)
- GI50 (SNB-78): > 100 µM (inactive)
- GI50 (XF498): > 100 µM (inactive)

Structure (SMILES): COC(=O)C1=CC2C(=O)OC1C1C(=O)NC(=O)C21 (stereo unspecified)
- GI50 (DLD-1): > 100 µM (inactive)
- GI50 (DMS-114): > 100 µM (inactive)
- GI50 (DMS-273): > 100 µM (inactive)
- GI50 (HOP-18): > 100 µM (inactive)
- GI50 (M19-MEL): > 100 µM (inactive)
- GI50 (RXF 631): > 100 µM (inactive)
- GI50 (SNB-78): > 100 µM (inactive)
- GI50 (XF498): > 100 µM (inactive)

Structure (SMILES): Cn1c(=O)c2c3oc(=O)cc(O)c3c(=O)n3c4ccccc4n(c1=O)c23
- GI50 (DLD-1): 35.8 µM (inactive)
- GI50 (DMS-273): 31.5 µM (inactive)
- GI50 (HOP-18): 36.5 µM (inactive)
- GI50 (M19-MEL): 38.9 µM (inactive)
- GI50 (RXF 631): 46.6 µM (inactive)
- GI50 (SNB-78): 37 µM (inactive)
- GI50 (XF498): 23.8 µM (inactive)

Structure (SMILES): O=C(O)CCSC(=O)Nc1ccccc1Cl
- GI50 (DLD-1): > 100 µM (inactive)
- GI50 (DMS-114): > 100 µM (inactive)
- GI50 (DMS-273): > 100 µM (inactive)
- GI50 (HOP-18): > 100 µM (inactive)
- GI50 (M19-MEL): > 100 µM (inactive)
- GI50 (RXF 631): > 100 µM (inactive)
- GI50 (SNB-78): > 100 µM (inactive)
- GI50 (XF498): > 100 µM (inactive)

Structure (SMILES): CCOC(=O)C1(c2ccccc2)CCC(=O)CC1
- GI50 (DLD-1): > 100 µM (inactive)
- GI50 (DMS-114): > 100 µM (inactive)
- GI50 (DMS-273): > 100 µM (inactive)
- GI50 (HOP-18): > 100 µM (inactive)
- GI50 (M19-MEL): > 100 µM (inactive)
- GI50 (RXF 631): > 100 µM (inactive)
- GI50 (SNB-78): > 100 µM (inactive)

Structure (SMILES): CC1=C(c2cc(C(=O)Nc3nccs3)nc(NC#N)n2)Sc2ccccc2N1
- GI50 (DLD-1): > 100 µM (inactive)
- GI50 (DMS-273): > 100 µM (inactive)
- GI50 (HOP-18): > 100 µM (inactive)
- GI50 (M19-MEL): > 100 µM (inactive)
- GI50 (RXF 631): > 100 µM (inactive)
- GI50 (XF498): > 100 µM (inactive)
